Measurements reported in publication PMC7555839 (Frontiers in Microbiology, 2020).
Like-named read-outs stand apart in the source and are kept apart here.

Assays:
[1] = test system: five bacterial tester strains; test: Ames test, overall evaluation (five tester strains); type: cell-based; details: in general
Excerpt: In this reverse mutation assay, five bacterial tester strains recommended by The Organization for Economic Cooperation and Development (OECD), were exposed to JBC 1847 in presence and absence of a metabolic activation system (S9) obtained from rat liver extract ([Maron and Ames, 1983]; [Levy et al., 2019]). The characteristics of the four Salmonella typhimurium mutants (TA98, TA100, TA1535, TA1537) and a single Escherichia coli mutant [wp2 (pKM101)] have been described by [Mortelmans and Zeiger (2000)] and [Levy et al. (2019)]. Prior to testing, the genotypes of all strains were confirmed as previously described ([Mortelmans and Zeiger, 2000]), and JBC 1847 was tested in various concentrations (1.5, 4, 10, 25, 64, 160, 400, and 1,000 μg/well) whereas DMSO served as negative control. As positive controls, five mutagenic compounds were applied in various concentrations (Supplementary Material). The Ames test was performed as described in Supplementary Material where acceptance criteria for the test results can also be found. To evaluate the test results, the mutagenicity ratio (MR) was calculated and interpreted as in previous studies ([Pah and Lakhani, 2012]; [Wang et al., 2018]). The MR was calculated as MR = x/xn. Here, x was the number of reverse mutated colonies exposed to JCB 1847 whereas xn was the number of reverse mutated colonies in the negative controls. […]

[2] = test system: E. coli APEC O2 (in house strain); test: Broth microdilution (MIC/MBC); type: cell-based; details: Escherichia coli; APEC O2, veterinary clinical isolate
[3] = test system: Enterococcus faecium ATCC 700221; test: Broth microdilution (MIC/MBC); type: cell-based; details: ATCC700221, ATCC 700221, human clinical isolate
[4] = test system: S. epidermidis 105 (in house strain); test: Broth microdilution (MIC/MBC); type: cell-based; details: Staphylococcus epidermidis; strain 105, human clinical isolate
[5] = test system: Escherichia coli mutant [wp2 (pKM101)]
S. aureus ATCC BAA-1556 = test: Broth microdilution (MIC/MBC); type: cell-based; details: Staphylococcus aureus, ATCCBAA1556; ATCC BAA-1556, human clinical isolate
[6] = test system: S. aureus CC398 (in house strain); test: Broth microdilution (MIC/MBC); type: cell-based; details: Staphylococcus aureus; CC398, veterinary clinical isolate
S. aureus USA300 = test: Induced tolerance assay (23 days); details: for MIC: Staphylococcus aureus
S. aureus USA300 JE2 = test: Growth and viability assay; type: cell-based, Staphylococcus aureus; details: for Bacterial concentration after 24 h: 0.5 × MIC
Method: Growth and viability assays were performed according to a previously published method ([Thorsing et al., 2013]), with some modifications. In general, the assay was conducted over a 24 h period in a 37°C heating bath with shaking, using S. aureus USA300 JE2 as test strain. […] The culture was diluted 1:100 in BHI broth and grown to early exponential phase (OD600 0.20). […] This culture was grown to OD600 0.20 where sample zero was collected. […] 100 μl samples were serially diluted, spread on MHA plates, and incubated at 37°C for 20–24 h followed by successive counting.
Data were statically analyzed and visualized using RStudio v3.6.3 ([R Core Team, 2020]) and Microsoft excel. In general, the values reflecting the bacterial concentration (CFU/ml) were transformed into a logarithmic scale. In the growth and viability assay, the mean numbers of the bacterial concentrations from the triplicates were plotted against time and standard deviations shown as error bars. To investigate differences in bacterial concentration between treatment groups in the in vivo assay, multiple group comparisons were performed using ANOVA and P < 0.05 considered significant. The data was visualized in a standard box plot.

MRSA USA300 = test: Transmission electron microscopy; type: cell-based, Staphylococcus aureus; details: concentration corresponding to the MIC, 1 h, vs untreated control
Method: To elucidate the interaction between JBC 1847 and MRSA USA300, transmission electron microscopy (TEM) was carried out. Bacterial cultures were inoculated in 10 ml MHB and cultivated at 37°C for 5 h, with shaking, until mid-exponential growth phase ([…]). […] An untreated control was also prepared. The five samples were placed on ice until being prepared for TEM. This included a fixation step in 2% glutaraldehyde in 0.15 M sodium phosphate buffer (pH 7.2). Subsequently, the fixed cells were washed three times and postfixed with 0.2% OsO4 (osmium tetroxide) in H2O/0.15 M sodium phosphate buffer (pH 7.2) for 1 h. The samples were then dehydrated with graded acetone, and then embedded in epoxy resin. Ultrathin sections of the samples were prepared using Formvar-coated copper grids, which were stained using 3% uranyl acetate. The samples were placed in a Philips CM 100 Transmission EM (Philips, Eindhoven, Netherlands) and exposed to 120 keV electron energy.

[7] = test system: Salmonella typhimurium TA100

Compound: CC(C)=CCCC(C)CC[N+](C)(C)CCCN1c2ccccc2Sc2ccccc21 (stereo not drawn) [JBC 1847]
- Mutagenicity ratio (MR) ([1]; all strains, MR ≥ 2 interpreted as positive): < 2
- Ames test result ([1]; presence and absence of S9): non-mutagenic
- MBC [2]: 16 µg/mL
- MIC [2]: 16 µg/mL
- MBC [3]: 2 to 4 µg/mL
- MIC [3]: 2 µg/mL
- MIC [4]: 0.5 µg/mL
- Mean number of reverse mutated colonies ([5]; + S9, 1.5 μg/well): 51.33 ± 12.86
- Mean number of reverse mutated colonies ([5]; + S9, 4 μg/well): 40.67 ± 9.07
- Mean number of reverse mutated colonies ([5]; + S9, 10 μg/well): 40.67 ± 13.32
- Mean number of reverse mutated colonies ([5]; + S9, 25 μg/well): 9.67 ± 2.08
- Mean number of reverse mutated colonies ([5]; + S9, 64 μg/well): 0.0
- Mean number of reverse mutated colonies ([5]; −S9, 1.5 μg/well): 33.00 ± 2.65
- Mean number of reverse mutated colonies ([5]; −S9, 4 μg/well): 39.33 ± 5.69
- Mean number of reverse mutated colonies ([5]; −S9, 10 μg/well): 17.33 ± 7.09
- Mean number of reverse mutated colonies ([5]; −S9, 64 μg/well): 0.0
- MBC (S. aureus ATCC BAA-1556): 0.5 µg/mL
- MIC (S. aureus ATCC BAA-1556): 0.5 µg/mL
- MBC [6]: 0.5 µg/mL
- MIC [6]: 0.5 µg/mL
- MIC (S. aureus USA300; USA300, 24 h, read-out: MIC Day 1): 0.5 µg/mL
- MIC (S. aureus USA300; USA300, 96 h, read-out: Highest MIC): 3.5 µg/mL
- MIC (S. aureus USA300; USA300, 96 h, read-out: MIC values after day 4): 1 to 2.5 µg/mL
- MIC (S. aureus USA300; USA300, 552 h, read-out: MIC Day 23): 3.5 µg/mL
- Increase in MIC (S. aureus USA300; tolerance assay, during the 23 days): 7 fold
- Bacterial concentration after 24 h (S. aureus USA300 JE2; trial 1): approximately 10^3 CFU/ml
- Bacterial concentration after 24 h (S. aureus USA300 JE2; trial 2): 0 CFU/ml
- Bacterial concentration after 24 h (S. aureus USA300 JE2; trial 3, increase after 6 h): reached the same level as the control curve
- Viable bacterial cells after 30 min (S. aureus USA300 JE2; 4 × MIC, all three replicates): no viable bacterial cells
- Bacterial count after 24 h (S. aureus USA300 JE2; MIC concentration, trial 3): approximately 10^3 CFU/ml
- Bacterial concentration at 24 h (S. aureus USA300 JE2; MIC concentration, trials 1 and 2): 0 CFU/ml
- MIC (S. aureus USA300 JE2; Staphylococcus aureus, USA300, 100 ml BHI broth flasks, culture at OD600 0.20, 37°C shaking 20–22 h, read-out: MIC (visually determined)): 4 µg/mL
- TEM appearance of bacterial cells (MRSA USA300): clearly lysed and the plasma membrane destroyed
- Mean number of reverse mutated colonies ([7]; TA100, + S9, 1.5 μg/well): 21.33 ± 2.08
- Mean number of reverse mutated colonies ([7]; TA100, + S9, 4 μg/well): 19.00 ± 5.29
- Mean number of reverse mutated colonies ([7]; TA100, + S9, 10 μg/well): 13.67 ± 1.53
- Mean number of reverse mutated colonies ([7]; TA100, + S9, 64 μg/well): 0.0
- Mean number of reverse mutated colonies ([7]; TA100, −S9, 1.5 μg/well): 24.33 ± 3.21
- Mean number of reverse mutated colonies ([7]; TA100, −S9, 4 μg/well): 26.67 ± 2.08
- Mean number of reverse mutated colonies ([7]; TA100, −S9, 10 μg/well): 18.00 ± 5.57
- Mean number of reverse mutated colonies ([7]; TA100, −S9, 25 μg/well): 0.0
- Mean number of reverse mutated colonies ([7]; TA100, −S9, 64 μg/well): 0.0
